From US20030065039A1, “Biologically active 1,3-bis-aromatic-prop-2-en-1-ones, 1,3-bis-aromatic-propan-1-ones, and 1,3-bis-aromatic-prop-2-yn-1-ones” (Statens Serum Institute, priority 1997, published 2003)
Like-named read-outs stand apart in the source and are kept apart here.

Key:
human lymphocytes = experiment: Lymphocyte Proliferation Assay; format: cell-based; conditions: Lymphocyte; PHA provoked proliferation of human lymphocytes; read-out: Lymphocytes IC50 ± SD
Summary of the method: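 Ficoll-isolated human blood mononuclear cells (0.63×10^5/ml) in RPMI 1640 with 5% FCS were cultured in triplicate with test compound and PHA or PPD for 3 or 7 days. Proliferation measured by ^3H-thymidine incorporation over the final 24 h; triplicate median recorded.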

Vero cell cultures = experiment: Cytotoxicity in Vero cell cultures; format: cell-based; conditions: Vero cells; values given as fractions, footnote a not given
Excerpt: (§1) In the following is reported the results from a Vero cell culture infected with different viruses. The cell culture used as well as the methods applied are well known to a person skilled in the art.

[1] = system: cytomegalovirus Davis strain; experiment: Activity against cytomegalovirus in HEL cells (plaque formation); format: cell-based; conditions: virus plaque formation reduced by 50%, 100 PFU, values given as fractions
Method: (§2) IC50 values are determined by the virus plaque formation and/or the virus cytopathic assay using standard methods well-known in the art.

[2] = system: cytomegalovirus AD-169 strain; experiment: as above; format: cell-based; conditions: virus plaque formation reduced by 50%, 100 PFU, values given as fractions
Method: as §2

Leishmania promastigotes = Leishmania promastigotes Assay; format: cell-based; conditions: Leishmania; promastigotes, 3H-thymidine uptake; read-out: Leishmania IC50 ± SD
Summary of the method: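 L. major (WHO Iran vaccine strain) and L. donovani MHOM/KE/85/NLB 274 promastigotes (3×10^6/ml, day 3 and 6 cultures) exposed to compound 2 h at 26 °C, then 3H-thymidine 18 h; incorporation counted by scintillation. Microscopic counts and flagellar motility also assessed.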

[3] = Preliminary 14 days oral toxicity study in rats; format: in vivo; conditions: highest dose level 1000 mg/kg/day
Method: A preliminary 14 days oral toxicity study in rats was carried out with 6 compounds. Observations included clinical signs, body weights, food intake, haematology, clinical chemistry and macroscopic pathology.

Plasmodium falciparum = Plasmodium falciparum Assay; format: cell-based; conditions: Plasmodium falciparum; 3-H-hypoxanthine incorporation, 48 hours; read-out: Plasmodium IC50 ± SD
Summary of the method: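 Parasitized erythrocytes (~1% parasitemia, 5×10^8/ml) cultured 48 h in RPMI with test compound, with 3H-hypoxanthine added for the last 24 h. Growth inhibition read as 3H-hypoxanthine incorporation into parasite DNA by liquid scintillation; uninfected and untreated infected cultures run in parallel.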

Reovirus-1 = experiment: Antiviral activity in Vero cell cultures; format: cell-based; conditions: Vero cells; values given as fractions
Method: as §2, §1

Sindbis virus = experiment: Antiviral activity in Vero cell cultures; format: cell-based; conditions: Vero cells; values given as fractions
Method: as §2, §1

Simliki forest virus = experiment: Antiviral activity in Vero cell cultures; format: cell-based; conditions: Vero cells; values given as fractions
Method: as §2, §1

Parainfluenza-3 Virus = experiment: Antiviral activity in Vero cell cultures; format: cell-based; conditions: Vero cells; values given as fractions
Method: as §2, §1

Coxsackie virus B4 = experiment: Antiviral activity in Vero cell cultures; format: cell-based; conditions: Vero cells; values given as fractions
Method: as §2, §1

[4] = system: human embryonic lung (HEL) cells; experiment: Cytotoxicity in human embryonic lung (HEL) cells; format: cell-based; conditions: HEL cell growth reduced by 50%; values given as fractions
mouse lymphoma tk = experiment: Mouse lymphoma tk assay
Excerpt: Following selection of SBC-35ma (3,5-dimethoxy-4′-allyloxychalcone) as a development candidate, this compound was studied in vitro using the chromosomal aberration assay with CHO cells and the mouse lymphoma tk assay.
In the screening design, three known drugs were included, namely chloroquine, pyrimethamine and artesunate.

[5] = biological target: T1, succinate dehydrogenase of Helicobacter pylori (Helicobacter pylori, UniProt O06913); format: biochemical
T1 construct: endogenous in cells; host or cells: Helicobacter pylori (preparation for the SDH measurement not described; sonicate mentioned for FRD)
T1 sequence (O06913 1-714): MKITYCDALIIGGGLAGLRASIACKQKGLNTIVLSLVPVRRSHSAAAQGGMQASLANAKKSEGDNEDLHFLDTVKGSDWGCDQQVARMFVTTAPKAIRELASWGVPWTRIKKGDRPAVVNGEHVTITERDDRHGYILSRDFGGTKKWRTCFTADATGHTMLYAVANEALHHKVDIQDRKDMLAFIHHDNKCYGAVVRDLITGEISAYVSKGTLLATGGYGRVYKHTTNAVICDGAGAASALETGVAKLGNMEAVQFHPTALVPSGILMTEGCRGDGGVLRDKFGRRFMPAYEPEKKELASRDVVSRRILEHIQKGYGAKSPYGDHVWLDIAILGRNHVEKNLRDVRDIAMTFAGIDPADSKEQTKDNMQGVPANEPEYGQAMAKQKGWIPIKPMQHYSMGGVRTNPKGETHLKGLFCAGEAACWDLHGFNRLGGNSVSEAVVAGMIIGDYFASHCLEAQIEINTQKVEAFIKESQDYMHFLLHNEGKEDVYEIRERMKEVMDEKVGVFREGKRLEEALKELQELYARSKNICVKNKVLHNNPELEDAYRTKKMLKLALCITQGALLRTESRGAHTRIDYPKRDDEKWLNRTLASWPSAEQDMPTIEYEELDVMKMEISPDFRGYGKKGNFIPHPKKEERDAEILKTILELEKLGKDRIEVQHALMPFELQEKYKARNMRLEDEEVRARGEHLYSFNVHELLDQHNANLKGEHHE
T1 sequence (O06914 1-245 partner): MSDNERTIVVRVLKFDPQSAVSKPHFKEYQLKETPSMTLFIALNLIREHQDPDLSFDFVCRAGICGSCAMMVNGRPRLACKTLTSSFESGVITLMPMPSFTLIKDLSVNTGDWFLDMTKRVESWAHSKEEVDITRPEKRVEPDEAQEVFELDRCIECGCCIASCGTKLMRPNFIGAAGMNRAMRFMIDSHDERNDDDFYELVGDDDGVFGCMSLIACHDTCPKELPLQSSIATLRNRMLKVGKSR
T1 sequence (O06912 1-255 partner): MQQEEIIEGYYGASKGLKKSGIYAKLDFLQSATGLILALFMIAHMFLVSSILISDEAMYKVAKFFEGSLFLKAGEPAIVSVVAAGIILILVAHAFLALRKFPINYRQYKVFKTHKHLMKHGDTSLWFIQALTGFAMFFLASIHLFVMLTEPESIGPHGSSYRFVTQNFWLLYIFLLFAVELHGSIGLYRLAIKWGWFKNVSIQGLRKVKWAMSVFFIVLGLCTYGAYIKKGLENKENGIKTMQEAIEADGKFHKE

[6] = biological target: T2, Helicobacter pylori fumarate reductase (Helicobacter pylori, UniProt O06913); format: biochemical
T2 construct: Membrane associated proteins were solubilized from the pellet in 150 mM KCl, pH 7.0; endogenous in cells; host or cells: Helicobacter pylori 007 strain; KCl-solubilised fraction (or sonicate supernatant)
T2 sequence (O06913 1-714): T1 sequence (O06913 1-714)
T2 sequence (O06914 1-245 partner): T1 sequence (O06914 1-245 partner)
T2 sequence (O06912 1-255 partner): T1 sequence (O06912 1-255 partner)
Method: 1) Extraction of soluble FRD: Bacteria were harvested by centrifugation at 18,000 g for 10 min at 4° C., and were washed 2 times in an isotonic phosphate saline buffer (50 mM sodium phosphate, pH 7.2, 90 mM NaCl, 5 mM Kcl). Bacteria were lysed in 5 mM Tris-HCl, pH 7.4, for 15 minutes, and centrifuged 18,000 g for 10 minutes. Membrane associated proteins were solubilized from the pellet in 150 mM KCl, pH 7.0, in ice bath for 60 min, and then the supernatant was collected after centrifugation (18,000 g for 10 minutes) for the measurement of FRD activity.
2) Extraction of FRD by sonication: Bacteria were harvested by centrifugation at 18,000 g for 10 min at 4° C., were sonicated, and then the supernatant was collected after centrifugation (18,000 g for 10 minutes) for the measurement of FRD activity.
NADH-FRD activity was determined as the rate of NADH-oxidation upon addition of 1 mM fumarate in the KCl-solubilized fraction or sonicated fraction. The reaction was monitored spectrophotometrically at 340 nm (∈=6.2 mM^−1 cm^−1) using 100 μM NADH and usually 3 mg protein in both reference and sample cuvettes. The measurement was carried out in a Shimadzu UV-190 double-beam spectrophotometer. Protein concentrations were determined using a Bio-Rad protein assay (Bio-Rad Laboratories, 200 Alfred Nobel Dr. Hercules, Calif. 94547, USA).
KCl solubilised fraction of bacteria was incubated with different concentrations of various oxygenated chalcones at 28° C. and the remaining FRD activity was measured. The IC50 values were determined as the concentration at which 50% of the activity was inhibited.

In the case of `C=CCOc1ccc(C(=O)/C=C/c2ccc(OC)c(OC)c2)cc1` [34m4′ac, 3,4-dimethoxy-4′-allyloxychalcone], the IC50 (human lymphocytes) is reported as 51 ± 6 µM, the “Minimum Cytotoxic Concentration” value (Vero cell cultures) is reported as <1/100 and the “Antiviral activity IC50, Davis strain, Assay 1” value [1] is reported as 1/100. The “Antiviral activity IC50, AD-169 strain, Assay 1” value [2] was <1/30, the IC50 (Leishmania promastigotes) was 60 ± 5 µM and the toxic effects [3] was “No toxic effects”. The IC50 (Plasmodium falciparum) was 32 µM, the “Minimum inhibitory concentration, Reovirus-1” value (Reovirus-1) was <1/100 and the “Minimum inhibitory concentration, Sindbis virus” value (Sindbis virus) was 1/60000. The “Minimum inhibitory concentration, Simliki forest virus” value (Simliki forest virus) was 1/2000, the “Minimum inhibitory concentration, Parainfluenza-3 Virus” value (Parainfluenza-3 Virus) was 1/6000 and the “Minimum inhibitory concentration, Coxsackie virus B4” value (Coxsackie virus B4) was 1/60000. For the same molecule, the “Cytotoxicity CC50” value [4] was <1/30.

In the case of `CCN(CC)CCCC(C)Nc1ccnc2cc(Cl)ccc12` (centres unmarked) [Chloroquine, chloroquine], the “mouse lymphoma tk assay, screening design” value (“mouse lymphoma tk assay” for short) (mouse lymphoma tk; with S9 mix) is reported as “questionable negative”.

With `O=C(O)/C=C/C(=O)O` [Fumarate] the “activity of succinate dehydrogenase” value [5] was “concentration-dependent inhibitory effect”.

In the case of `C[C@H]1[C@H](OC(=O)CCC(=O)O)O[C@@H]2O[C@@]3(C)CC[C@H]4[C@H](C)CC[C@@H]1[C@@]24OO3` [artesunate], the “mouse lymphoma tk assay” value (mouse lymphoma tk) is reported as “positive”.

With `CCc1nc(N)nc(N)c1-c1ccc(Cl)cc1` [pyrimethamine] the “mouse lymphoma tk assay” value (mouse lymphoma tk) was “negative”.

With antimycin [reference compound] the “activity of NADH-fumarate reductase” value [6] was “could not inhibit it” and the “activity of succinate dehydrogenase” value [5] was “could no inhibit it”.

With malonate the “activity of succinate dehydrogenase” value [5] was “concentration-dependent inhibitory effect”.
